Peptide text beside a SMILES is read from it.
How the values were obtained:
[1] = cited from earlier work
[2] = system: uninduced BL21 Star cells; test: Screening of detergents: lysis of uninduced cell cultures analysed by PAGE; format: cell-based, E. coli; conditions: for lysis of uninduced BL21 Star cells by PAGE (FIG. 1) / lysis capabilities by PAGE (FIG. 2) / lysis performance: 1% detergent in 50 mM phosphate; for lysis of uninduced BL21 Star cells by PAGE (FIG. 1) / lysis performance: 300 mM NaCl pH 7; for lysis capabilities by PAGE (FIG. 2): 300 mM NaCl pH=7, alkyl chain length 9-11; for lysis performance: compared with BugBuster; for lysis of bacterial cells: 1% detergent in 50 mM phosphate pH 7, uninduced cell cultures, compared with BugBuster and B-Per
Protocol: (§1) Cultures were grown to OD600=1.2-1.5 and then collected for lysis. One ml of culture was subjected to centrifugation (10,000×g) and lysed in 75 to 100 μl of each lysis buffer depending on optical density (OD). In some samples 10 μl of 1:100 dilution of BENZONASE® nuclease (Benzon Pharma A/S) and 10 μl of 0.5 mg/ml Lysozyme were added. Samples were allowed to incubate at room temperature for approximately 10 minutes, then spun down at 10,000×g. Supernatant was pipetted and used for subsequent activity assays and SDS-PAGE analysis. For BL21 (DE3) pLysS cultures, 2 independent lysates of each culture with and without lysozyme were prepared and tested.
(§2) For gel electrophoresis, 15 μL of each lysate was incubated with 5 μl of 4× LDS Sample buffer and 2 μl of NuPage Reducing reagent in a 70° C. heat block for 10 minutes. 5 μl of the samples were run on 4-12% NuPAGE gels (Invitrogen cat # NP0321 or NP0323) with MES SDS running buffer. SDS-PAGE gels were stained with SimplyBlue Safe Stain (Invitrogen cat# LC6065).
Screening of a wide range of detergents was performed by evaluating the lysis of uninduced cell cultures. For the first round of screening, detergents from different chemical groups were evaluated starting with some well-known detergents such as Triton X-100, Elugent, NP-7, NP-40. The lysis buffers were prepared at 1% detergent concentration in 50 mM phosphate pH 7. The detergents were compared with known lysis procedures using BugBuster® lysis reagent (Novagen), B-Per™ protein extraction reagent (Pierce), Relay 96 Protein Screen (Invitrogen), and sonication.
Other types of detergents also screened were ASB-C8 and three other synthesized sulfobetaine detergents: SB-A, SB-B, and SB-C, as well as APO-8, APO-10, APO-12 and N-dodecanoyl sucrose as 1% detergent solutions in 50 mM phosphate, 300 mM NaCl pH 7) using BL21 Star cells. […] Lane 1 is a Mark 12 Molecular Weight Standard; lane 2 is a 1% SB-A lysis solution; lane 3 is a 1% ASB-C8 lysis solution; lane 4 is a 1% SB-B lysis solution; lane 5 is a 1% SB-C lysis solution; lane 6 is a 1% APO-8 lysis solution; lane 7 is a 1% APO-10 lysis solution; lane 8 is a 1% APO-12 lysis solution; lane 9 is a 1% N-Dodecanoyl Sucrose lysis solution and lane 10 is BugBuster® HT lysis reagent. […] It is likely that the length of the alkyl chain is critical for the lysis ability of the detergent. Therefore, another round of testing was performed with detergents of the same type with alkyl chains one […] smaller and bigger than APO-10. […] One percent detergent formulations were prepared in 50 mM phosphate, 300 mM NaCl pH=7. In FIG. 2, Lane 1 is a Mark 12 Molecular Weight Standard; lane 2 is BugBuster® HT; lane 3 is a 1% APO-9 lysis solution; lane 4 is a 1% APO-10 lysis solution and lane 5 is a 1% APO-11 lysis solution.

[3] = system: BL-21-AI, BL-21-Star, BL-21 DE3; test: Side by side comparison of alkylglucoside and alkylphosphine detergents as lysis reagents; format: cell-based, E. coli; conditions: several cell types: BL-21-AI
Protocol: as §1, §2
Side by side comparison testing was performed of the alkylglucoside and alkylphosphine detergents with several different cell types: BL-21-AI, BL-21-Star, BL-21 DE3. In this comparison testing BugBuster® HT lysis reagent (Novagen), B-Per™ protein extraction reagent (Pierce), n-octyl-β-D-glucopyranoside, n-nonyl-β-D-glucopyranoside, and n-octyl-β-D-thioglucopyranoside, APO-9 and APO-10 were utilized. […] Further optimization and testing was concentrated on the use of APO detergents by themselves and in combination with other detergents.

[4] = system: BL21- AI cells expressing β-galactosidase; test: Lysis of cells expressing β-galactosidase, β-galactosidase activity of lysate; format: cell-based, E. coli; conditions: 0.5% APO detergent formulation; lysozyme in the lysis buffer
Protocol: (§3) E. coli strain BL21 cells were transformed with plasmids expressing β-galactosidase, green fluorescent protein (GFP) or maltose binding protein (MBP) as follows. BL21-AI were transformed with pET 100 expressing n-terminal 6×His tagged GFP or n-terminally 6×His tagged LacZ (β-galactosidase). The cells were grown at 37° C. to OD600=0.4-0.5 and then induced with 1 mM IPTG and 0.1% arabinose. The expression was performed for 2-4 hours at 37° C. BL21 Star cells were transformed with plasmid expressing MBP. The cells were grown at 37° C. to OD600=0.4-0.5 and then induced with 1 mM IPTG. Protein expression was performed at 30° C. for 2-4 hours. […]
(§4) GFP activity was determined by reading fluorescence (Excitation at 395/Emission […]) of lysates (diluted 1:20 or 1:40 in 50 mM Phosphate pH 7). The raw data was recorded. LacZ activity was determined by using the β-galactosidase assay kit (IVGN cat # K1455-01). The lysate samples were diluted 1:100 and then analyzed as described in the kit manual. Results were obtained using OD420 readings in the following equation: nmoles of ONPG hydrolyzed/μL lysate=(OD420background) (1.92×10^5 nl)(dilution factor=100) (4500 nl/nmoles-cm)×(1 cm) Data was normalized to the reading received from a control sample prepared with BugBuster® or BugBuster® HT (Novagen) lysis reagents. […]

[5] = system: BL21-AI cells expressing GFP; test: Lysis of cells expressing GFP, fluorescence of lysate; format: cell-based, E. coli; conditions: 0.5% in 50 mM Tris pH=7; normalized to BugBuster; average of multiple treatments
Protocol: as §3, §4

BL21 Star cultures = test: MBP extraction evaluated qualitatively by SDS PAGE; format: cell-based, E. coli; conditions: qualitative
Protocol: as §3, with “hours. BL-21(DE3) and BL-21(DE3)pLysS cells were transformed with vector expressing N-terminally 6×His tagged LacZ (β-galactosidase) (pET 100 lacZ-IVGN cat# K100-01), N-terminal Lumio tag (Cys-Cys-Pro-Gly-Cys-Cys) and 6×His tagged Lac-Z (pET 160 LacZ), and N-terminal Lumio tag (Cys-Cys-Pro-Gly-Cys-Cys) and 6×His tagged GFP (pET 160 GFP).” for “hours.”
Following preliminary screening, more detailed testing was performed using GFP, β-galactosidase and MBP expressed in E. coli. […] The activity of the β-galactosidase was measured using the β-galactosidase activity kit (Invitrogen) as described above. The GFP activity (native state) was tested by measuring the fluorescence of the protein as described above. MBP extraction was evaluated qualitatively by SDS PAGE gel electrophoresis.

NC(=O)CN(CC(=O)O)CC(=O)O [ADA]
pKa(4° C.) [1]: 6.80
pKa(20° C.) [1]: 6.60
pKa(37° C.) [1]: 6.43
Temperature Coefficient (↑pKa/° C.) [1]: 0.011 ↑pKa/° C.

CCCCCCCCP(C)(C)=O [APO-8, Dimethyloctylphosphine oxide]
lysis of uninduced BL21 Star cells by PAGE (FIG. 1) [2]: did not lyse the cells efficiently

CCCCCCCCCP(C)(C)=O [APO-9, Dimethylnonylphosphine oxide]
performance as lysis reagent [3]: performed well
lysis capabilities by PAGE (FIG. 2) [2]: optimal lysis capabilities

CCCCCCCCCCP(C)(C)=O [APO-10, Dimethyldecylphosphine oxide]
difference of β-galactosidase extraction performance from the BPER-2 reagent (FIG. 4) [4]: ≤ 5%
performance as lysis reagent [3]: performed well
difference of GFP fluorescence result from the BugBuster reagent (FIG. 3) [5]: ≤ 7%
MBP extraction (BL21 Star cultures): similarly or slightly better
lysis of uninduced BL21 Star cells by PAGE (FIG. 1) [2]: performed very well
lysis capabilities by PAGE (FIG. 2) [2]: optimal lysis capabilities

CCCCCCCCCCCCP(C)(C)=O [APO-12, Dimethyldodecylphosphine oxide]
lysis of uninduced BL21 Star cells by PAGE (FIG. 1) [2]: did not lyse the cells efficiently

O=S(=O)(O)CCN(CCO)CCO [BES]
pKa(4° C.) [1]: 7.41
pKa(20° C.) [1]: 7.5
pKa(37° C.) [1]: 6.88
Temperature Coefficient (↑pKa/° C.) [1]: 0.016 ↑pKa/° C.

O=C(O)CN(CCO)CCO [Bicine]
pKa(4° C.) [1]: 8.64
pKa(37° C.) [1]: 8.04
Temperature Coefficient (↑pKa/° C.) [1]: 0.018 ↑pKa/° C.

Cl.NCC(N)=O [Glycinamide HCL]
pKa(4° C.) [1]: 8.66
pKa(20° C.) [1]: 8.20
pKa(37° C.) [1]: 7.71
Temperature Coefficient (↑pKa/° C.) [1]: 0.029 ↑pKa/° C.

NCC(=O)NCC(=O)O [Glycylglycine] (H-Gly-Gly-OH)
pKa(4° C.) [1]: 8.85
pKa(37° C.) [1]: 7.92
Temperature Coefficient (↑pKa/° C.) [1]: 0.028 ↑pKa/° C.

O=S(=O)(O)CCCN1CCN(CCO)CC1 [HEPPS]
pKa(4° C.) [1]: 8.18
pKa(20° C.) [1]: 8.00
pKa(37° C.) [1]: 7.81
Temperature Coefficient (↑pKa/° C.) [1]: 0.011 ↑pKa/° C.

O=S(=O)(O)CCNC(CO)(CO)CO [TES]
pKa(4° C.) [1]: 7.82
pKa(20° C.) [1]: 7.50
pKa(37° C.) [1]: 7.16
Temperature Coefficient (↑pKa/° C.) [1]: 0.020 ↑pKa/° C.

O=C(O)CNC(CO)(CO)CO [TRICINE]
pKa(4° C.) [1]: 8.49
pKa(37° C.) [1]: 7.79
Temperature Coefficient (↑pKa/° C.) [1]: 0.021 ↑pKa/° C.

CCCCCCCCCCCCO[C@@H]1O[C@H](CO)[C@@H](O[C@H]2O[C@H](CO)[C@@H](O)[C@H](O)[C@H]2O)[C@H](O)[C@H]1O [n-dodecyl-β-D-maldoside]
lysis performance [2]: good lysis performance

CCCCCCCCCO[C@@H]1O[C@H](CO)[C@@H](O)[C@H](O)[C@H]1O [n-nonyl-β-D-glucopyranoside]
performance as lysis reagent [3]: performed well
lysis performance [2]: good lysis performance

CCCCCCCCO[C@@H]1O[C@H](CO)[C@@H](O)[C@H](O)[C@H]1O [n-octyl-β-D-glucopyranoside]
performance as lysis reagent [3]: performed well
MBP extraction (BL21 Star cultures): comparable
lysis performance [2]: good lysis performance

CCCCCCCCS[C@@H]1O[C@H](CO)[C@@H](O)[C@H](O)[C@H]1O [n-octyl-β-D-thioglucopyranoside]
performance as lysis reagent [3]: performed well
lysis performance [2]: good lysis performance

N-dodecanoyl sucrose
lysis of uninduced BL21 Star cells by PAGE (FIG. 1) [2]: did not lyse the cells efficiently

NP-40
lysis of bacterial cells [2]: not be very efficient

Triton X-100
lysis of bacterial cells [2]: not be very efficient

Source: patent publication US20060183889A1, “Alkyl phosphine detergent products and extraction processes” (priority 2005, published 2006)
